This note sets out measurements from US20030130200A1, “Small peptides and methods for treatment of asthma and inflammation” (Hisatek, LLC, priority 1997, published 2003).

Where no end group is shown, it is not given here. The star is where a group is joined. For = O=C*

In this assay the test system is mast cells. Briefly: Rat skin model for inhibition of mast cell degranulation induced by Compound 48/80 (area of capillary permeability/bluing). It is filed as in vivo, rat (male Sprague-Dawley). An excerpt: The Rat Skin Model for Determination of Inhibition of Mast Cell Degranulation
Allergy induced asthma results from exposure of substances (allergens) to which an organism has become hypersensitized. Exposure to allergen results in degranulation of mast cells in the lung, releasing leukotrienes and histamines. […] Respiratory symptoms resulting from such an exposure range from mild (itching and sneezing) to potentially fatal (asthma), including in extreme chronic cases death by anaphylaxis.
In this model, the blood plasma of the experimental rat is labeled with the dye trypan blue. This soluble dye is carried in the bloodstream as a passive marker of plasma itself, and is excluded from live cells. Intact blood vessels including the capillary system, retain this dye under normal circumstances. A compound, which induces degranulation of mast cells (resulting in leukotriene and histamine release), is injected into the skin to simulate allergen-induced degranulation. In these experiments, Compound 48/80 was used for this purpose. In the events following leukotriene and histamine release, capillary permeability is increased, and plasma, dyed blue, leaks from capillaries and dyes the skin surrounding the injection site blue. The area of bluing is a measure of the amount of Compound 48/80 injected.
A compound can be tested for “anti-leukotriene” and/or “anti-histamine” activity by mixing it with Compound 48/80 prior to injection.
The rat skin model was undertaken and validated. Various peptides were tested at a predetermined dose for anti-leukotriene and/or anti-histamine activity. The dose selected allowed a general comparison to f-Met-Leu-Phe, which was standard compound for comparison.
A “dose response” titration was performed for some compounds and compared with the standard compound. Observing serial decreases in the size areas of capillary permeability using serially smaller doses of the putative inhibitory compound validates the inhibition of leukotriene and/or histamine release observed in the initial predetermined dose test.
Reagents were obtained from Sigma or Aldrich, with the exception of ketamine, a veterinary anaesthetic that was obtained from various veterinary suppliers. The rats used were male Sprague-Dawley breed, 220-240 g at time of purchase from B&K International.
For the rat skin reaction, rats were anaesthetized with 0.25 ml 10 mg/ml ketamine. 1.0 ml trypan blue in saline (sterile filtered) was administered in a tail vein, and the back of the rat was shaved. Four intradermal injection sites per rat were used for test and control injections.
Compound 48/80 was prepared as a 1.5 mg/ml stock solution in saline. […] Serial dilutions in saline to working levels were prepared just prior to injection of each rat.
Peptides were prepared as a 23 mM stock solution in DMSO, and stored at −20° C. between experiments. At the time of use, the frozen stock solutions were thawed, and appropriate aliquots added to dilutions of Compound 48/80, along with appropriate amounts of DMSO, to result in the ratio of 5 μl DMSO to 0.1 ml aqueous Compound 48/80.
For injections, 0.1 ml Compound […], +/− test compounds were injected intradermally into anaesthetized, dyed, and shaved rats. Following a 15 minute incubation, the rats were sacrificed by cervical dislocation and the back skin was evulsed and placed on a light box. An image of the backlit skin was digitized using a CCD video capture camera and compatible hardware/software. The digitized image was analyzed using a scientific graphics analysis software package, and the areas of capillary permeability (bluing) were integrated and digital values were obtained for further analysis.
A dose response curve was generated using Compound 48/80 at various doses from ca. 0.01 μg through ca 15 μg. […] A dose of 0.15 μg of Compound 48/80 was selected for conducting further tests.
A dose response curve was prepared for the standard compound, f-Met-Leu-Phe, using the selected dose of 0.15 μg Compound 48/80. […]

Consider “f-Met-Leu-Phe-Phe (For-MLFF) [Example 9]”, for which the “Inhibition of degranulation induced by Compound 48/80, dose response curve” value (doses of 0 to about 230 nM peptide, 0.15 μg Compound 48/80 (FIG. 2, FIG. 3)) is “Surprisingly remarkable inhibition of degranulation induced by Compound 48/80 was clearly shown”. Besides, where the note is “percent mast cell degranulation produced by 48/80, 100 nanomoles peptide, 0.15 μg Compound 48/80”, the “% Degranulation” value was 1-3%.
